From PMC12586182 (Frontiers in Oncology, 2025)

How the values were obtained:
Experiment in all cases: Cell viability assay (ATPlite)
Assay type in all cases: cell-based
Hs 746.T = details: Homo sapiens, Hs746T; Hs 746.T cell line, 72 hours incubation
Outline: (§1)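 Cells grew 24 h, then received 9-point √10-fold compound series in duplicate (0.4% DMSO final) for 72 h. ATP content was read by ATPlite luminescence and normalized to vehicle controls as % viability. IC50 came from a four-parameter logistic fit; curves with F-value above 1.5 were invalidated, with IC50 then set at the top concentration.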

JAR = details: Homo sapiens; JAR cell line, 72 hours incubation
Outline: as §1

DEL = details: Homo sapiens; DEL cell line, 72 hours incubation
Outline: as §1

BL-70 = details: Homo sapiens; BL-70 cell line, 72 hours incubation
Outline: as §1

K-562 = details: Homo sapiens, K562; K-562 cell line, 72 hours incubation
Outline: as §1

EoL-1 = details: Homo sapiens, EOL1; EoL-1 cell line, 72 hours incubation
Outline: as §1

MDA-MB-468 = details: Homo sapiens; MDA-MB-468 cell line, 72 hours incubation
Outline: as §1

SW1573 = details: Homo sapiens; SW1573 cell line, 72 hours incubation
Outline: as §1

HCT 15 = details: Homo sapiens; HCT 15 cell line, 72 hours incubation
Outline: as §1

5637 = details: Homo sapiens; 5637 cell line, 72 hours incubation
Outline: as §1

DB = details: Homo sapiens; DB cell line, 72 hours incubation
Outline: as §1

AsPC-1 = details: Homo sapiens, ASPC1; AsPC-1 cell line, 72 hours incubation
Outline: as §1

NCI-H82 = details: Homo sapiens; NCI-H82 cell line, 72 hours incubation
Outline: as §1

SK-N-MC = details: Homo sapiens; SK-N-MC cell line, 72 hours incubation
Outline: as §1

NCC-IT = details: Homo sapiens, NCCIT; NCC-IT cell line, 72 hours incubation
Outline: as §1

DU145 = details: Homo sapiens, DU-145; DU145 cell line, 72 hours incubation
Outline: as §1

MOLM-13 = details: Homo sapiens; MOLM-13 cell line, 72 hours incubation
Outline: as §1

LNCaP clone FGC = details: Homo sapiens; LNCaP clone FGC cell line, 72 hours incubation
Outline: as §1

A-549 = details: Homo sapiens, A549; A-549 cell line, 72 hours incubation
Outline: as §1

A-427 = details: Homo sapiens; A-427 cell line, 72 hours incubation
Outline: as §1

CCRF-CEM = details: Homo sapiens; CCRF-CEM cell line, 72 hours incubation
Outline: as §1

SK-N-AS = details: Homo sapiens; SK-N-AS cell line, 72 hours incubation
Outline: as §1

CAL-27 = details: Homo sapiens; CAL-27 cell line, 72 hours incubation
Outline: as §1

MV4-11 = details: Homo sapiens; MV4-11 cell line, 72 hours incubation
Outline: as §1

U-87MG ATCC = details: Homo sapiens; U-87MG ATCC cell line, 72 hours incubation
Outline: as §1

Ku812 = details: Homo sapiens; Ku812 cell line, 72 hours incubation
Outline: as §1

SK-N-SH = details: Homo sapiens; SK-N-SH cell line, 72 hours incubation
Outline: as §1

HCC4006 = details: Homo sapiens; HCC4006 cell line, 72 hours incubation
Outline: as §1

NCI-H226 = details: Homo sapiens; NCI-H226 cell line, 72 hours incubation
Outline: as §1

PFSK-1 = details: Homo sapiens; PFSK-1 cell line, 72 hours incubation
Outline: as §1

SW982 = details: Homo sapiens; SW982 cell line, 72 hours incubation
Outline: as §1

O=C(c1ccc(Oc2ccccc2)cc1Cl)c1c[nH]c2ncnc(N[C@@H]3CC[C@@H](CO)OC3)c12 [nemtabrutinib]
IC50 (Hs 746.T): 11.4 µM | IC50 (JAR): 18.1 µM | IC50 (DEL): 15.4 µM | IC50 (BL-70): 0.498 µM | IC50 (K-562): 2.57 µM | IC50 (EoL-1): 0.059 µM | IC50 (MDA-MB-468): 6.25 µM | IC50 (SW1573): 6.3 µM | IC50 (HCT 15): 5.78 µM | IC50 5637: 3.46 µM | IC50 (DB): 17.3 µM | IC50 (AsPC-1): 3.83 µM | IC50 (NCI-H82): 12.3 µM | IC50 (SK-N-MC): 7.4 µM | IC50 (NCC-IT): 4.62 µM | IC50 (DU145): 1.64 µM | IC50 (MOLM-13): 1 µM | IC50 (LNCaP clone FGC): > 31.6 µM | IC50 (A-549): 7.26 µM | IC50 (A-427): 1.24 µM | IC50 (CCRF-CEM): 13.7 µM | IC50 (SK-N-AS): 2.81 µM | IC50 (CAL-27): 1.29 µM | IC50 (MV4-11): 1.35 µM | IC50 (U-87MG ATCC): 12 µM | IC50 (Ku812): 1.43 µM | IC50 (SK-N-SH): 3.43 µM | IC50 (HCC4006): 6.17 µM | IC50 (NCI-H226): 4.62 µM | IC50 (PFSK-1): 11.3 µM | IC50 (SW982): 10.7 µM
